The record followed here is US20170239249A1, “QUINAZOLINE-BASED KINASE INHIBITORS” (Bristol-Myers Squibb Company, priority 2014, published 2017).

The test has as its target AAK1 (full length human) (Homo sapiens, UniProt Q2M2I8). Description: HEK281 Cell-Based Assay (phospho-mu2 Western blot in HEK293F cells transfected with AAK1 and AP2M1). To be noted: IC50 (nM), functional potency; inhibition of mu2 phosphorylation in HEK293F cells, 3 hours incubation, 5 concentrations. For orientation: A western blot detects proteins with antibodies after separation by electrophoresis.

Sequence of AAK1 (full length human) (Q2M2I8 1-863 isoform Q2M2I8-2): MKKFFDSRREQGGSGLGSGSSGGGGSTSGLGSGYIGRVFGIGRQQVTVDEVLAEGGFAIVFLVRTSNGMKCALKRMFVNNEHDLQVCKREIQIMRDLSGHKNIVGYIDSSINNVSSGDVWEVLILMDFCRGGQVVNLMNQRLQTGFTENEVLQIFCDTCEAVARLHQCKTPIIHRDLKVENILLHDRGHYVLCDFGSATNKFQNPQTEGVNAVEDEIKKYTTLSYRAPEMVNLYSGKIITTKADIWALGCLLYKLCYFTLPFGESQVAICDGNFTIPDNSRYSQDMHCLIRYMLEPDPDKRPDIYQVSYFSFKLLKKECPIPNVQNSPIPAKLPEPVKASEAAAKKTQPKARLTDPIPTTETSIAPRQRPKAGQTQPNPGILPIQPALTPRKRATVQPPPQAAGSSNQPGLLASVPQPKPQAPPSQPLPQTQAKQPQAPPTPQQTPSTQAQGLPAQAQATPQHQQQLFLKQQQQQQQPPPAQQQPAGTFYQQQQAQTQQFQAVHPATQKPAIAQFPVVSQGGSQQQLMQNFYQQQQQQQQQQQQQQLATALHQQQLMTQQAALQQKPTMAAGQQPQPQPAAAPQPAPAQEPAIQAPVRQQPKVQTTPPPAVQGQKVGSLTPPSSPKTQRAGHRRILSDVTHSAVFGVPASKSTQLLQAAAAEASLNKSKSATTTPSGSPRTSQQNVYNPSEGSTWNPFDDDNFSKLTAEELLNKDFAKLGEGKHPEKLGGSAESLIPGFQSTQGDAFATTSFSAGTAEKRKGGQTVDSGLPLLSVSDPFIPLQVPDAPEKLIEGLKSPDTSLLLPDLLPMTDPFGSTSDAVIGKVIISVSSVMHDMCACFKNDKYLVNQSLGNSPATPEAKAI

What is called IC50 is the point on the concentration scale where inhibition reaches its midpoint. The low end stands for inhibition by little substance, the high end for a need for much substance. For the compound `CCc1nc(C(N)C2CCCCC2)nc2ccc(-c3ccncc3)cc12` (single isomer, unassigned; (+)) [Example 8, (+)-Cyclohexyl(4-ethyl-6-(pyridin-4-yl)quinazolin-2-yl)methanamine], inhibition was half-maximal at 61 nM (IC50).

As to `CCc1nc(C(N)C2CCCCC2)nc2ccc(-c3ccncc3)cc12` (single isomer, unassigned; (-)) [Example 7, (−)-Cyclohexyl(4-ethyl-6-(pyridin-4-yl)quinazolin-2-yl)methanamine], the IC50 stood at 8 nM.

`CCc1nc(C(N)CC(C)C)nc2cc(OC)c(-c3cnco3)cc12` (single isomer, unassigned; enantiomer 1) [Example 86, 1-(4-Ethyl-7-methoxy-6-(oxazol-5-yl)quinazolin-2-yl)-3-methylbutan-1-amine (Enantiomer 1)]: the IC50 worked out at 87 nM.

The compound `CCc1nc(C(N)CC(C)C)nc2cc(OC)c(-c3cnco3)cc12` (single isomer, unassigned; enantiomer 2) [Example 87, 1-(4-Ethyl-7-methoxy-6-(oxazol-5-yl)quinazolin-2-yl)-3-methylbutan-1-amine (Enantiomer 2)] displayed an IC50 of 13 nM.

As for `CC(C)CC(N)c1ncc2cc(-c3cnco3)ccc2n1` (centres unmarked) [Example 1, 3-Methyl-1-(6-(oxazol-5-yl)quinazolin-2-yl)butan-1-amine], the half-inhibitory concentration (IC50) turned out to be 420 nM.

The compound `Cc1nc(C(N)CC(C)C)nc2ccc(-c3cnco3)cc12` (centres unmarked) [Example 2, 3-Methyl-1-(4-methyl-6-(oxazol-5-yl)quinazolin-2-yl)butan-1-amine] yielded an IC50 of 170 nM.

Consider `CCc1nc(C(N)CC(C)C)nc2ccc(-c3cnco3)cc12` (centres unmarked) [Example 3, 1-(4-Ethyl-6-(oxazol-5-yl)quinazolin-2-yl)-3-methylbutan-1-amine], for which 77 nM corresponded to half-maximal inhibition (IC50).

Consider `CCCc1nc(C(N)CC(C)C)nc2ccc(-c3cnco3)cc12` (centres unmarked) [Example 4, 3-Methyl-1-(6-(oxazol-5-yl)-4-propylquinazolin-2-yl)butan-1-amine], for which 5300 nM corresponded to half-maximal inhibition (IC50).

As to `CCc1nc(C(N)CC(C)C)nc2c(OC)cc(-c3cnco3)cc12` (centres unmarked) [Example 5, 1-(4-Ethyl-8-methoxy-6-(oxazol-5-yl)quinazolin-2-yl)-3-methylbutan-1-amine], the IC50 was found to be 75 nM.

In turn, `CCc1nc(C(N)CC(C)C)nc2ccc(-c3ccncc3OC)cc12` (centres unmarked) [Example 6, 1-(4-Ethyl-6-(3-methoxypyridin-4-yl)quinazolin-2-yl)-3-methylbutan-1-amine] showed an IC50 of 36 nM.

`CCc1nc(C(N)CC2CCCCC2)nc2ccc(-c3ccncc3)cc12` (centres unmarked) [Example 9, 2-Cyclohexyl-1-(4-ethyl-6-(pyridin-4-yl)quinazolin-2-yl)ethanamine]: it took 260 nM to reach half-maximal inhibition (IC50).

For the compound `CCc1nc(CCC2CCCC2)nc2ccc(-c3ccncc3)cc12` [Example 10, 2-(2-Cyclopentylethyl)-4-ethyl-6-(pyridin-4-yl)quinazoline], the IC50 turned out to be 4800 nM.

On to `COc1c(-c2cnco2)ccc2nc(C(N)CC(C)C)ncc12` (centres unmarked) [Example 11, 1-(5-Methoxy-6-(oxazol-5-yl)quinazolin-2-yl)-3-methylbutan-1-amine], for which half-maximal inhibition (IC50) required 360 nM.

`CC(C)CC(N)c1nc2ccc(-c3cnco3)cc2c(=O)[nH]1` (centres unmarked) [Example 12, 2-(1-Amino-3-methylbutyl)-6-(oxazol-5-yl)quinazolin-4-ol]: the midpoint of inhibition, the IC50, lay at 140 nM.

`CC(C)CC(N)c1nc2ccc(-c3ccncc3)cc2c(=O)[nH]1` (centres unmarked) [Example 13, 2-(1-Amino-3-methylbutyl)-6-(pyridin-4-yl)quinazolin-4-ol] yielded a half-maximal inhibitory concentration (IC50) of 93 nM.

Compound `COc1nc(C(N)CC(C)C)nc2ccc(-c3cnco3)cc12` (centres unmarked) [Example 14, 1-(4-Methoxy-6-(oxazol-5-yl)quinazolin-2-yl)-3-methylbutan-1-amine] yielded an IC50 of 230 nM.

In turn, `CCOc1nc(C(N)CC(C)C)nc2ccc(-c3cnco3)cc12` (centres unmarked) [Example 15, 1-(4-Ethoxy-6-(oxazol-5-yl)quinazolin-2-yl)-3-methylbutan-1-amine] registered a half-maximal inhibitory concentration (IC50) of 410 nM.

In the case of `CNc1nc(C(N)CC(C)C)nc2ccc(-c3cnco3)cc12` (centres unmarked) [Example 16, 2-(1-Amino-3-methylbutyl)-N-methyl-6-(oxazol-5-yl)quinazolin-4-amine], it took 210 nM to reach half-maximal inhibition (IC50).

Turning to `CC(C)CC(N)c1nc(N(C)C)c2cc(-c3cnco3)ccc2n1` (centres unmarked) [Example 17, 2-(1-Amino-3-methylbut)-N,N-dimethyl-6-(oxazol-5-yl)quinazolin-4-amine], half-maximal inhibition (IC50) was put at 360 nM.

`CCN(CC)c1nc(C(N)CC(C)C)nc2ccc(-c3cnco3)cc12` (centres unmarked) [Example 18, 2-(1-Amino-3-methylbutyl)-N,N-diethyl-6-(oxazol-5-yl)quinazolin-4-amine] returned an IC50 of 130 nM.

`CC(C)CC(N)c1nc(N2CCCC2)c2cc(-c3cnco3)ccc2n1` (centres unmarked) [Example 19, 3-Methyl-1-(6-(oxazol-5-yl)-4-(pyrrolidin-1-yl)quinazolin-2-yl)butan-1-amine] came in with a half-maximal inhibitory concentration (IC50) of 760 nM.

Take `CCNc1nc(C(N)CC(C)C)nc2ccc(-c3cnco3)cc12` (centres unmarked) [Example 20, 2-(1-Amino-3-methylbutyl)-N-ethyl-6-(oxazol-5-yl)quinazolin-4-amine]: the IC50 came out at 850 nM.

Compound `CC(C)CC(N)c1nc(NCCO)c2cc(-c3cnco3)ccc2n1` (centres unmarked) [Example 21, 2-((2-(1-Amino-3-methylbutyl)-6-(oxazol-5-yl)quinazolin-4-yl)amino)ethanol] had an IC50 of 1200 nM.

With `COCCNc1nc(C(N)CC(C)C)nc2ccc(-c3cnco3)cc12` (centres unmarked) [Example 22, 2-(1-Amino-3-methylbutyl)-N-(2-methoxyethyl)-6-(oxazol-5-yl)quinazolin-4-amine], the IC50 is 1300 nM.

`CNc1nc(C(N)CC(C)C)nc2ccc(-c3ccncc3)cc12` (centres unmarked) [Example 23, 2-(1-Amino-3-methylbutyl)-N-methyl-6-(pyridin-4-yl)quinazolin-4-amine] came in with a half-inhibitory concentration (IC50) of 79 nM.

`CCNc1nc(C(N)CC(C)C)nc2ccc(-c3ccncc3)cc12` (centres unmarked) [Example 24, 2-(1-Amino-3-methylbutyl)-N-ethyl-6-(pyridin-4-yl)quinazolin-4-amine] had a half-maximal inhibitory concentration (IC50) of 86 nM.

`CCN(CC)c1nc(C(N)CC(C)C)nc2ccc(-c3ccncc3)cc12` (centres unmarked) [Example 25, 2-(1-Amino-3-methylbutyl)-N,N-diethyl-6-(pyridin-4-yl)quinazolin-4-amine] showed an IC50 of 22 nM.

Compound `COc1cnccc1-c1ccc2nc(C(N)CC(C)C)nc(N(C)C)c2c1` (centres unmarked) [Example 26, 2-(1-Amino-3-methylbutyl)-6-(3-methoxypyridin-4-yl)-N,N-dimethylquinazolin-4-amine] had an IC50 of 31 nM.

`CCN(CC)c1nc(C(N)CC(C)C)nc2ccc(-c3ccncc3OC)cc12` (centres unmarked) [Example 27, 2-(1-Amino-3-methylbutyl)-N,N-diethyl-6-(3-methoxypyridin-4-yl)quinazolin-4-amine] registered a 50% inhibitory concentration (IC50) of 20 nM.

In the case of `CCNc1nc(C(N)CC(C)C)nc2ccc(-c3ccncc3OC)cc12` (centres unmarked) [Example 28, 2-(1-Amino-3-methylbutyl)-N-ethyl-6-(3-methoxypyridin-4-yl)quinazolin-4-amine], it took 380 nM to reach half-maximal inhibition (IC50).

Turning to `COc1cnccc1-c1ccc2nc(CCC(C)C)nc(N(C)C)c2c1` [Example 29, 2-Isopentyl-6-(3-methoxypyridin-4-yl)-N,N-dimethylquinazolin-4-amine], the half-maximal inhibitory concentration (IC50) came to 54 nM.

Take `CC(C)CC(N)c1nc(C#N)c2cc(-c3cnco3)ccc2n1` (centres unmarked) [Example 30, 2-(1-Amino-3-methylbutyl)-6-(oxazol-5-yl)quinazoline-4-carbonitrile]: the 50% inhibitory concentration (IC50) turned out to be 17 nM.

Take `CC(C)CCc1nc(C#N)c2cc(-c3cnco3)ccc2n1` [Example 31, 2-Isopentyl-6-(oxazol-5-yl)quinazoline-4-carbonitrile]: it took 640 nM to reach half-maximal inhibition (IC50).

In the case of `COc1cc2nc(C(N)CC(C)C)nc(C#N)c2cc1-c1cnco1` (centres unmarked) [Example 32, 2-(1-Amino-3-methylbutyl)-7-methoxy-6-(oxazol-5-yl)quinazoline-4-carbonitrile], it took 6 nM to reach half-maximal inhibition (IC50).

In turn, `CC(C)CC(N)c1nc(C#N)c2cc(-c3ccncc3)ccc2n1` (centres unmarked) [Example 33, 2-(1-Amino-3-methylbutyl)-6-(pyridin-4-yl)quinazoline-4-carbonitrile] had a half-maximal inhibitory concentration (IC50) of 14 nM.

`COc1cnccc1-c1ccc2nc(C(N)CC(C)C)nc(C#N)c2c1` (centres unmarked) [Example 34, 2-(1-Amino-3-methylbutyl)-6-(3-methoxypyridin-4-yl)quinazoline-4-carbonitrile] registered a concentration for half-maximal inhibition (IC50) of 12 nM.

For `COc1cc2nc(C(N)CC(C)C)nc(C#N)c2cc1-c1ccncc1` (centres unmarked) [Example 35, 2-(1-Amino-3-methylbutyl)-7-methoxy-6-(pyridin-4-yl)quinazoline-4-carbonitrile], the half-maximal inhibitory concentration (IC50) was 68 nM.

As for `COc1cc2nc([C@H](N)CC(C)C)ncc2cc1-c1cnco1` [Example 36, (R)-1-(7-Methoxy-6-(oxazol-5-yl)quinazolin-2-yl)-3-methylbutan-1-amine], 113 nM corresponded to half-maximal inhibition (IC50).

In the case of `COc1nc(CCC(C)C)nc2ccc(-c3cn[nH]c3)cc12` [Example 37, 2-Isopentyl-4-methoxy-6-(1H-pyrazol-4-yl)quinazoline], the midpoint of inhibition, the IC50, lay at 1010 nM.

`COc1nc(CCC(C)C)nc2ccc(-c3ccncc3)cc12` [Example 38, 2-Isopentyl-4-methoxy-6-(pyridin-4-yl)quinazoline] registered an IC50 of 1070 nM.

For `CNc1nc(CCC(C)C)nc2ccc(-c3cnco3)cc12` [Example 39, 2-Isopentyl-N-methyl-6-(oxazol-5-yl)quinazolin-4-amine], the IC50 was found to be 1140 nM.

`CC(C)CCc1nc(N(C)C)c2cc(-c3cnco3)ccc2n1` [Example 40, 2-Isopentyl-N,N-dimethyl-6-(oxazol-5-yl)quinazolin-4-amine] yielded an IC50 of 412 nM.

`COc1nc(CCC(C)C)nc2ccc(-c3cnco3)cc12` [Example 41, 5-(2-Isopentyl-4-methoxyquinazolin-6-yl)oxazole] had an IC50 of 3150 nM.

Compound `CC(C)CCc1nc2ccc(-c3cnco3)cc2c(=O)[nH]1` [Example 42, 2-Isopentyl-6-(oxazol-5-yl)quinazolin-4(3H)-one] yielded an IC50 of 49 nM.
